The structures appear in SMILES notation.

For this test, the target named is Stimulator of interferon genes protein (Homo sapiens, UniProt Q86WV6). Description: WT STING Binding Assay. The procedure: Upon proximity of the two dyes, the excitation of the donor by the flash lamp on the PHERAstar FSX plate reader triggers a Fluorescence Resonance Energy Transfer (FRET) towards the acceptor, which in turn fluoresces at 665 nm. To assess the ability of the synthetic small molecule STING ligands to bind to human STING, a competitive assay format was applied. A 10-point titration of each of the synthetic ligands in 5 uL were transferred into a 384 well plate, followed by 20 uL of assay buffer containing the 6×His-tagged human STING protein and labeled 2′3′cGAMP ligand and incubated for three hours at room temperature. The raw values obtained from the PHERAstar were used to calculate the reported IC50 values (the signal is inversely proportional to the binding of the synthetic ligand) through curve fitting in Genedata. The percent inhibition was calculated based upon the maximal amount of binding by synthetic compound versus the maximum binding of unlabeled 2′3′ cGAMP which was used as a control in each assay.
Chain of Stimulator of interferon genes protein (Q86WV6 whole entry): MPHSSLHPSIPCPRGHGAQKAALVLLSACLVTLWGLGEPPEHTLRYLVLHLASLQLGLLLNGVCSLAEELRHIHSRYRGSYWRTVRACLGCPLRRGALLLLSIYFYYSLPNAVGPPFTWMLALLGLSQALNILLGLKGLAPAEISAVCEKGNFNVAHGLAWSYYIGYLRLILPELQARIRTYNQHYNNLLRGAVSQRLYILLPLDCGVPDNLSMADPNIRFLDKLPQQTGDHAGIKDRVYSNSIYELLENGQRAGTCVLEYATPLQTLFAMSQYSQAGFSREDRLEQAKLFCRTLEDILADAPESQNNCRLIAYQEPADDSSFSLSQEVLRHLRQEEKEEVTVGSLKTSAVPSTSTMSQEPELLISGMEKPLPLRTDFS

In general, IC50 refers to the concentration that gives 50% inhibition. Low readings indicate inhibition by little substance, high ones a need for much substance. For the compound `O=C(Nc1c(C(=O)O)cc(F)c(OCCCCOc2c(F)cc(C(=O)O)c(NC(=O)c3ccc(-n4ccnc4)nn3)c2F)c1F)c1ccc(-n2ccnc2)nn1` [US20230357253, Compound 38], the IC50 was above 1 µM.

In the case of `O=C(Nc1c(C(=O)O)cc(F)c(OCCCCOc2c(F)cc(C(=O)O)c(NC(=O)c3ccc(-n4ccnc4)nn3)c2F)c1F)c1ccc(O)nn1` [US20230357253, Compound 39], the concentration for half-maximal inhibition (IC50) was above 1 µM.

As for `O=C(Nc1cc(OCCCCOc2cnc(C(=O)O)c(NC(=O)c3ccc(-n4ccnc4)nn3)c2)cnc1C(=O)O)c1ccc(-n2ccnc2)nn1` [US20230357253, Compound 45], the IC50 was above 1 µM.

For the compound `COc1cc(C(=O)O)c(NC(=O)c2ccc(-n3ccnc3)nn2)cc1CCCc1ccc(C(=O)O)c(NC(=O)c2ccc(-n3ccnc3)nn2)c1` [US20230357253, Compound 56], the IC50 was below 0.01 µM.

In turn, `COc1cc(C(=O)O)c(NC(=O)c2ccc(-n3ccnc3)nn2)cc1CCCc1cc(NC(=O)c2ccc(-n3ccnc3)nn2)c(C(=O)O)cc1F` [US20230357253, Compound 59] displayed an IC50 below 0.01 µM.

In the case of `O=C(Nc1cc(CCCc2ccc(C(=O)O)c(NC(=O)c3ccc4nnnn4n3)c2)ccc1C(=O)O)c1ccc(-n2ccnc2)nn1` [US20230357253, Compound 63], the IC50 was above 1 µM.

Turning to `O=C(Nc1cc(CCCc2cc(NC(=O)c3ccc(-n4ccnc4)nn3)c(C(=O)O)cc2Cl)ccc1C(=O)O)c1ccc(-n2ccnc2)nn1` [US20230357253, Compound 66], the IC50 was below 0.01 µM.

For `O=C(Nc1cc(CCCc2cc(NC(=O)c3ccc4nnnn4n3)c(C(=O)O)cc2F)c(F)cc1C(=O)O)c1ccc(-n2ccnc2)nn1` [US20230357253, Compound 67], the IC50 was below 0.01 µM.

In the case of `O=C(Nc1cc(CCCc2cc(NC(=O)c3ccc(-n4ccnc4)nn3)c(C(=O)O)cc2F)ccc1C(=O)O)c1ccc(-n2ccnc2)nn1` [US20230357253, Compound 68], the IC50 was below 0.01 µM.

In turn, `O=C(Nc1cc(CCCc2cc(C(=O)O)c(NC(=O)c3ccc(-n4ccnc4)nn3)cc2F)c(F)cc1C(=O)O)c1ccc(-n2ccnc2)nn1` [US20230357253, Compound 70] came in with an IC50 below 0.01 µM.

`O=C(Nc1cc(CCCc2cc(C(=O)O)c(NC(=O)c3ccc(-n4ccnc4)nn3)cc2F)ccc1C(=O)O)c1ccc(-n2ccnc2)nn1` [US20230357253, Compound 78] gave an IC50 below 0.01 µM.

Consider `O=C(Nc1cc(CCCc2cc(C(=O)O)c(NC(=O)c3ccc4nnnn4n3)cc2F)c(F)cc1C(=O)O)c1ccc(-n2ccnc2)nn1` [US20230357253, Compound 90], for which the IC50 is below 0.01 µM.

`O=C(Nc1cc(F)c(CCCc2cc(NC(=O)c3ccc4nnnn4n3)c(C(=O)O)cc2F)cc1C(=O)O)c1ccc(-n2ccnc2)nn1` [US20230357253, Compound 94] returned an IC50 below 0.01 µM.

For the compound `O=C(Nc1cc(CCCc2cc(C(=O)O)c(NC(=O)c3ccc4nnnn4n3)cc2F)c(N2CCOCC2)cc1C(=O)O)c1ccc(-n2ccnc2)nn1` [US20230357253, Compound 108], the IC50 was above 1 µM.

Consider `O=C(Nc1cc(CCCOc2cc(NC(=O)c3ccc(-n4ccnc4)nn3)c(C(=O)O)cc2F)c(F)cc1C(=O)O)c1ccc(-n2ccnc2)nn1` [US20230357253, Compound 125], for which the IC50 was below 0.01 µM.

`O=C(Nc1cc(CCCOc2cc(NC(=O)c3ccc4nnnn4n3)c(C(=O)O)cc2F)c(F)cc1C(=O)O)c1ccc(-n2ccnc2)nn1` [US20230357253, Compound 126] yielded an IC50 below 0.01 µM.

As for `O=C(Nc1cc(CCCCc2cc(C(=O)O)c(NC(=O)c3ccc(-n4ccnc4)nn3)cc2F)c(F)cc1C(=O)O)c1ccc(-n2ccnc2)nn1` [US20230357253, Compound 127], the IC50 was below 0.01 µM.

The compound `COc1cc(C(=O)O)c(NC(=O)c2ccc(-n3ccnc3)nn2)cc1OCCc1cc(C(=O)O)c(NC(=O)c2ccc(-n3ccnc3)nn2)cc1C#N` [US20230357253, Compound 130] showed an IC50 below 0.01 µM.

`O=C(Nc1cc(CSCc2cc(NC(=O)c3ccc(-n4ccnc4)nn3)c(C(=O)O)cc2F)c(F)cc1C(=O)O)c1ccc(-n2ccnc2)nn1` [US20230357253, Compound 132] registered an IC50 below 0.01 µM.

Regarding `O=C(O)Cc1cc(F)c(CCOc2cc(NC(=O)c3ccc(-n4ccnc4)nn3)c(C(=O)O)cc2F)cc1NC(=O)c1ccc(-n2ccnc2)nn1` [US20230357253, Compound 133], the IC50 was above 1 µM.

As for `COc1nc(C(=O)O)c(NC(=O)c2ccc(-n3ccnc3)nn2)cc1CCCc1cc(NC(=O)c2ccc(-n3ccnc3)nn2)c(C(=O)O)cc1F` [US20230357253, Compound 134], the IC50 is below 0.01 µM.

The compound `O=C(Nc1ccc(OCOc2ccc(NC(=O)c3ccc(-n4ccnc4)nn3)c(C(=O)O)c2)cc1C(=O)O)c1ccc(-n2ccnc2)nn1` [US20230357253, Compound 138] came in with an IC50 above 1 µM.

For the compound `O=C(Nc1cc(CCOc2cc(C(=O)O)c(NC(=O)c3ccc(-n4ccnc4)nn3)cc2F)c(F)cc1C(=O)O)c1ccc(-n2ccnc2)nn1` [US20230357253, Compound 141], the IC50 was below 0.01 µM.

In turn, `O=C(Nc1cc(OCCc2cc(C(=O)O)c(NC(=O)c3ccc(-n4ccnc4)nn3)cc2F)c(F)cc1C(=O)O)c1ccc(-n2ccnc2)nn1` [US20230357253, Compound 144] returned an IC50 below 0.01 µM.

The compound `O=C(Nc1cc(CCOc2cc(C(=O)O)c(NC(=O)c3ccc4nnnn4n3)cc2F)c(F)cc1C(=O)O)c1ccc(-n2ccnc2)nn1` [US20230357253, Compound 145] registered an IC50 of 0.01 to 0.1 µM.

For the compound `O=C(Nc1cc(CCCc2ccc(-c3nn[nH]n3)c(NC(=O)c3ccc(-n4ccnc4)nn3)c2)c(F)cc1C(=O)O)c1ccc(-n2ccnc2)nn1` [US20230357253, Compound 148], the concentration for half-maximal inhibition (IC50) was above 1 µM.

Turning to `COc1cc(C(=O)O)c(NC(=O)c2ccc(-n3ccnc3)nn2)cc1OCCc1cc(C(=O)O)c(NC(=O)c2ccc(-n3ccnc3)nn2)cc1Cl` [US20230357253, Compound 156], the IC50 was below 0.01 µM.

On to `O=C(Nc1cc(CCCc2cc(NC(=O)c3ccc(-n4ccnc4)nn3)c(C(=O)O)cc2F)c(F)cc1C(=O)O)c1ccc(-c2cn[nH]c2)nn1` [US20230357253, Compound 159], for which the IC50 is below 0.01 µM.

For the compound `N#Cc1cc(C(=O)O)c(NC(=O)c2ccc(-n3ccnc3)nn2)cc1CCOc1cc(NC(=O)c2ccc(-n3ccnc3)nn2)c(C(=O)O)cc1F` [US20230357253, Compound 162], the IC50 is below 0.01 µM.

As for `O=C(Nc1cc(CCCc2cc(NC(=O)c3ccc(-n4ccnc4)nn3)c(C(=O)O)s2)c(F)cc1C(=O)O)c1ccc(-n2ccnc2)nn1` [US20230357253, Compound 164], the IC50 was below 0.01 µM.

The compound `O=C(Nc1cc(OCCc2cc(C(=O)O)c(NC(=O)c3ccc(-n4ccnc4)nn3)cc2Cl)c(F)cc1C(=O)O)c1ccc(-n2ccnc2)nn1` [US20230357253, Compound 166] displayed an IC50 below 0.01 µM.

In turn, `O=C(Nc1cc(OCCCOc2cc(NC(=O)c3ccc(-n4ccnc4)nn3)c(C(=O)O)cc2F)c(F)cc1C(=O)O)c1ccc(-n2ccnc2)nn1` [US20230357253, Compound 168] gave an IC50 below 0.01 µM.

In the case of `O=C(Nc1cc(OCCc2cc(C(=O)O)c(NC(=O)c3ccc4nnnn4n3)cc2F)c(F)cc1C(=O)O)c1ccc(-n2ccnc2)nn1` [US20230357253, Compound 169], the IC50 is below 0.01 µM.

As for `O=C(Nc1cc(CCCc2cc(NC(=O)c3ccc(-n4ccnc4)nn3)c(C(=O)O)cc2Cl)c(F)cc1C(=O)O)c1ccc(-n2ccnc2)nn1` [US20230357253, Compound 174], the IC50 was below 0.01 µM.

Regarding `O=C(Nc1cc(OCCc2c(F)cc(NC(=O)c3ccc(-n4ccnc4)nn3)c(C(=O)O)c2F)c(F)cc1C(=O)O)c1ccc(-n2ccnc2)nn1` [US20230357253, Compound 177], the IC50 is below 0.01 µM.

The compound `O=C(Nc1cc(CCc2cc(C(=O)O)c(NC(=O)c3ccc(-n4ccnc4)nn3)cc2F)c(F)cc1C(=O)O)c1ccc(-n2ccnc2)nn1` [US20230357253, Compound 180] yielded an IC50 above 1 µM.

`N#Cc1cc(C(=O)O)c(NC(=O)c2ccc(-n3ccnc3)nn2)cc1CCCc1cc(NC(=O)c2ccc(-n3ccnc3)nn2)c(C(=O)O)cc1F` [US20230357253, Compound 182] showed an IC50 below 0.01 µM.

In turn, `O=C(Nc1cc(OCc2cc(C(=O)O)c(NC(=O)c3ccc(-n4ccnc4)nn3)cc2F)c(F)cc1C(=O)O)c1ccc(-n2ccnc2)nn1` [US20230357253, Compound 190] yielded an IC50 above 1 µM.

Consider `O=C(Nc1cc(OCCOc2cc(C(=O)O)c(NC(=O)c3ccc(-n4ccnc4)nn3)cc2F)c(F)cc1C(=O)O)c1ccc(-n2ccnc2)nn1` [US20230357253, Compound 191], for which the IC50 was below 0.01 µM.

As for `CC(Cc1cc(NC(=O)c2ccc(-n3ccnc3)nn2)c(C(=O)O)cc1F)Cc1cc(NC(=O)c2ccc(-n3ccnc3)nn2)c(C(=O)O)cc1F` [US20230357253, Compound 194], the IC50 was below 0.01 µM.

For `O=C(Nc1cc(CCSc2cc(NC(=O)c3ccc(-n4ccnc4)nn3)c(C(=O)O)cc2F)c(F)cc1C(=O)O)c1ccc(-n2ccnc2)nn1` [US20230357253, Compound 195], the IC50 is below 0.01 µM.

Compound `C=C(Cc1cc(NC(=O)c2ccc(-n3ccnc3)nn2)c(C(=O)O)cc1F)Cc1cc(NC(=O)c2ccc(-n3ccnc3)nn2)c(C(=O)O)cc1F` [US20230357253, Compound 199] returned an IC50 below 0.01 µM.

`O=C(Nc1cc(CC[S+]([O-])c2cc(NC(=O)c3ccc(-n4ccnc4)nn3)c(C(=O)O)cc2F)c(F)cc1C(=O)O)c1ccc(-n2ccnc2)nn1` (centres undefined) [US20230357253, Compound 200] yielded an IC50 above 1 µM.

`O=C(Nc1cc(OCCc2cc(C(=O)O)c(NC(=O)c3ccc(-c4cn[nH]c4)nn3)cc2F)c(F)cc1C(=O)O)c1ccc(-c2cn[nH]c2)nn1` [US20230357253, Compound 204] came in with an IC50 below 0.01 µM.
